Calls of active or inactive are those of the source.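 The calls were made as follows: active = IC50 of 10 µM or lower; inactive = IC50 above 10 µM.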
These compounds were tested against Nuclear receptor coactivator 2 (Homo sapiens) (UniProt Q15596) (assay: SRC2 (NCOA2) coactivator inhibitors, late-stage follow-up, selectivity assay for SRC3 inhibitor project, cell-based, HEK293, GAL4-SRC2 luciferase, powder samples (AID 651782)). Details: HEK293 GAL4-SRC2 luciferase reporter, luminescence.
Sequence of Nuclear receptor coactivator 2 (Homo sapiens) (Q15596 whole entry, looked up, the tested form may be a part): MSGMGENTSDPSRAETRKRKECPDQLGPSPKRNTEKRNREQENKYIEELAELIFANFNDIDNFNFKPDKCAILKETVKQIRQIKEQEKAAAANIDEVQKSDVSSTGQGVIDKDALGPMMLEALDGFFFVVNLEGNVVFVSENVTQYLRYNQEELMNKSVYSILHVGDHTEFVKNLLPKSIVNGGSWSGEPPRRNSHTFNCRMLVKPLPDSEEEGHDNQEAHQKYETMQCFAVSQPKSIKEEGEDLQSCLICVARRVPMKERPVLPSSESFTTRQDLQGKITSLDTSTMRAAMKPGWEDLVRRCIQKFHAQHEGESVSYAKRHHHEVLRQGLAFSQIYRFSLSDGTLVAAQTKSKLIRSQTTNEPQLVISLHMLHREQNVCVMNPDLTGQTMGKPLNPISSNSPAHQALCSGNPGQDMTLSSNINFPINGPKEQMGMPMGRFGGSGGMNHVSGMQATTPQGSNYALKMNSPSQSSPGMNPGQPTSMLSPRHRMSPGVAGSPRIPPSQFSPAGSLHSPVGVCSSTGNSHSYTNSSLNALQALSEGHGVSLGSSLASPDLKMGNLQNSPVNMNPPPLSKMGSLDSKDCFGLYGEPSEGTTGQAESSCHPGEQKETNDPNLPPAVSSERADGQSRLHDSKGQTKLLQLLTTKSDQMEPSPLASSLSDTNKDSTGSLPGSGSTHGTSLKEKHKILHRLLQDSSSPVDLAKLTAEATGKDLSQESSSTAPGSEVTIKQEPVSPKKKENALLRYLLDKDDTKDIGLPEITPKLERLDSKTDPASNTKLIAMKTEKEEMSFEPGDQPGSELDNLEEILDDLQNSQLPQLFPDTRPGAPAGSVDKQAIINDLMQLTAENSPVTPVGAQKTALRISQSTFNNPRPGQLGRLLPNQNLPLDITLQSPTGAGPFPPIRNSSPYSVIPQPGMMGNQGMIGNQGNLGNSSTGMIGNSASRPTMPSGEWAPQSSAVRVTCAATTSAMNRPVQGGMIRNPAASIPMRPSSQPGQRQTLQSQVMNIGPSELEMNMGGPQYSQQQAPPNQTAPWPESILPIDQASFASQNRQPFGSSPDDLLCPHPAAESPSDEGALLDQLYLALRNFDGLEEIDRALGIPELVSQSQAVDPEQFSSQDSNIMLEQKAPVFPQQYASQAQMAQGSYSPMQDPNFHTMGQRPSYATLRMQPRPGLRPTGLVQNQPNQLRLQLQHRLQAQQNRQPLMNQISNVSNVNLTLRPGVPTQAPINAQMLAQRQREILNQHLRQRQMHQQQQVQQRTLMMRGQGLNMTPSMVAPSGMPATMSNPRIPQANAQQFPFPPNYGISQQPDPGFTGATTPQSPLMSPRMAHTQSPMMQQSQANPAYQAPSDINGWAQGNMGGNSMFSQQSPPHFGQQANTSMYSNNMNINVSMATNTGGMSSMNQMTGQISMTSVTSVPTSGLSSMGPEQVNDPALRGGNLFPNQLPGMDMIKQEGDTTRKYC
In the case of `CN1C(=O)C2(C(C#N)=C(N)N(c3cc(Cl)cc(Cl)c3)C3=C2C(=O)CC(C)(C)C3)c2ccccc21` (stereo not drawn), the IC50 is reported as “inactive”. For `OCCN1CCN(C(=S)c2ccc(-c3ccccc3)cc2)CC1`, the IC50 was 4.68 µM. For `CCCNC(=O)c1nnsc1S(=O)(=O)c1ccc(Cl)cc1`, the IC50 was “inactive”. `O=C(Nc1ccccc1Oc1ccccc1)c1cc([N+](=O)[O-])ccc1Cl` was tested, and the IC50 was 5.4 µM. With `CN1C(=O)C2(C(C#N)=C(N)N(c3cc(Cl)cc(Cl)c3)C3=C2C(=O)CCC3)c2ccccc21` (stereo not drawn) the IC50 was > 35.9 µM (inactive). For `Cc1ccc(OCC(=O)c2cc(C)n(-c3ccccc3)c2C)c([N+](=O)[O-])n1`, the IC50 was “inactive”. In the case of `O=C(COC(=O)c1ccc[nH]c1=O)Nc1ccc(N2CCCCC2)cc1`, the IC50 is reported as > 35.9 µM (inactive). For `CC(C)(C)c1ccc(-c2noc(CCC(=O)Nc3cccnc3)n2)cc1`, the IC50 was > 35.9 µM (inactive).
